Experimental data published in patent US10555961B2 (INDIANA UNIVERSITY RESEARCH AND TECHNOLOGY CORPORATION, priority 2015, dated 2020).

Columns and labels:
Format in all cases: cell-based
UGAC stop codon = test: Stop codon readthrough (FIG. 7); conditions: 200 μg mL^−1 for 24 hours, relative to controls
Protocol: Native gentamicin and various congeners prepared as in Example 1 were tested to determine their effect on stop codon readthrough.
In order to determine the optimal concentrations of the aminoglycosides (tobramycin, amikacin, and gentamicin) to use in the mammalian translation system, increasing amounts of each aminoglycoside were added to a rabbit reticulocyte translation system while expressing the QX(N) (UGAC) construct. The effect of aminoglycosides on total protein synthesis was monitored by comparing the total amount of proteins synthesized in the presence and absence of various aminoglycosides. A range of aminoglycoside concentrations was then determined that allowed a maximal amount of termination suppression without inhibiting total protein synthesis more than two- to threefold. In vitro translation reactions were carried out using the TNT coupled transcription/translation system (Promega, Madison, Wis.). […] The gel was dried and subjected to Phosphorlmager analysis in order to quantitate the amount of truncated and full-length protein species. The percentage of readthrough was then calculated as the amount of full-length protein/(truncated+full-length species)×100%.

[1] = tested on: variant of Klebsiella pneumonia that exhibits multi-drug resistance; conditions: multi-drug resistant Klebsiella pneumonia, FIG. 2
Protocol: (§1) Bacterial assays were performed using native gentamicin and the C-1, C-1a, C-2, and C-2a congeners of gentamicin.

Klebsiella pneumonia = test: Bacterial assay, kill zones and growth inhibition zones; conditions: FIG. 2
Protocol: as §1

Bacillus subtilis = test: as above; conditions: FIG. 2
Protocol: as §1

Substance | readthrough of the stop codon UGAC (UGAC stop codon) | anti-bacterial activity (kill zones and growth inhibition zones) [1] | anti-bacterial activity (kill zones and growth inhibition zones) (Klebsiella pneumonia) | anti-bacterial activity (kill zones and growth inhibition zones) (Bacillus subtilis)
C-1 gentamicin | greater readthrough relative to controls | demonstrated anti-bacterial activity | demonstrated anti-bacterial activity | demonstrated anti-bacterial activity
C-1a gentamicin | – | demonstrated anti-bacterial activity | demonstrated anti-bacterial activity | demonstrated anti-bacterial activity
C-2 gentamicin | greater readthrough relative to controls | demonstrated anti-bacterial activity | demonstrated anti-bacterial activity | demonstrated anti-bacterial activity
C-2a gentamicin | – | demonstrated anti-bacterial activity | demonstrated anti-bacterial activity | demonstrated anti-bacterial activity
